Assay results: paper PMC8143347, “Metabolism and Interspecies Variation of IMMH-010, a Programmed Cell Death Ligand 1 Inhibitor Prodrug” (Pharmaceutics, 2021)

Experiments:
[1] = Metabolism in human liver S9 fractions; type: in vitro ADME
Procedure: (§1) IMMH-010 metabolism was compared in human, monkey, dog, and rat liver S9 homogenates. IMMH-010 (10 μM) was incubated with liver S9 homogenate protein (0.5 mg protein/mL) and a reduced nicotinamide adenine dinucleotide phosphate (NADPH) regenerating system in a final volume of 0.2 mL Tris-HCl buffer (50 mM, pH 7.4) containing 5 mM MgCl2. The reactions were performed in triplicate. After 2 min of preincubation at 37 °C, reactions were initiated by the addition of IMMH-010 (10 μM). The samples were collected 0, 5, 10, and 20 min after incubation, 2 volumes of acetonitrile were added to terminate the reaction. After vortexing and centrifugation, IMMH-010, YPD-29B, M3, and M4 in the supernatant were analyzed by LC-MS/MS.
(§2) All statistics were calculated using GraphPad Prism 8.0 software (San Diego, CA, USA) designed for one-way ANOVA. Pharmacokinetic parameters were calculated with a non-compartmental analysis using WinNonlin Version 6.3 (Pharsight, Mountain View, CA, USA). ADMET predictor V10.0 (Simulations Plus, Inc., Lancaster, CA, USA) and Microsoft Excel (Microsoft, Redmond, WA, USA) were used to process the data (i.e., half-life (t1/2) and hepatic clearance (CLhep) determination). Data were expressed as means ± standard deviations (SD). Results were considered statistically significant if the p-value <0.05, <0.01 and <0.001.

[2] = Metabolism in dog liver S9 fractions; type: in vitro ADME
Procedure: as §1, §2

[3] = PK study in male cynomolgus monkeys; type: in vivo, cynomolgus monkey; conditions: cynomolgus monkey, plasma, single oral IMMH-010 maleate 5 mg/kg
Procedure: IMMH-010 maleate was suspended with 0.5% carboxymethyl cellulose to make a 1 mg/mL suspension for PO gavage. Four male cynomolgus monkeys received a single oral dose of IMMH-010 maleate (5 mg/kg). Serial blood samples were collected upto 48 h. The plasma was separated and the plasma concentrations of IMMH-010 and YPD-29B were determined by LC-MS/MS.
LC-MS/MS was performed using a triple quadrupole mass spectrometer (API 4000, AB Sciex, Framingham, MA, USA) with an ultra-performance liquid chromatography system (LC-30A, Shimadzu, Kyoto, Japan). Analyst 1.6.2 software (AB Sciex) was used for data acquisition and analysis. Mobile phase A was 1 mM ammonium acetate and mobile phase B was methanol. The mobile phase was delivered with the following gradient elution profile: 0–2.8 min, 70% B; 2.9 min, 85% B; 3 min, 90% B; 3.1–6.8 min, 100% B; 6.9–12 min, 70% B. The flow rate was 0.3 mL/min, and the column oven was maintained at 35 °C. The specific transitions monitored were 641.3 → 494.2 for IMMH-010, 597 → 155 for YPD-29B, 512 → 247 for M3, and 524 → 246 for M4.
as §2

MC38 colon carcinoma = assay: Antitumor activity in MC38 colon carcinoma xenograft model; type: in vivo, mouse
Procedure: (§3) The antitumor activity of IMMH-010 was evaluated by B16F10 melanoma and MC38 colon carcinoma xenograft models. The B16F10 and MC38 cells were resuspended in saline (1.5 × 10^6 cells/0.2 mL saline) and injected subcutaneously into the right flanks of each mouse on day 0. The treated mice received once-daily oral administration of IMMH-010 maleate (1.25, 2.5, 5, and 10 mg/kg, n = 10) by oral gavage (PO) for 19 consecutive days, whereas the control mice received vehicle (0.5% carboxymethyl cellulose, n = 10). The mice in the positive control group received the anti-mouse PD-L1 antibody (696618M2, Bio X Cell, West Lebanon, NH, USA) at 10 mg/kg intraperitoneally every 3 days (n = 10). The first-line antineoplastic drug cyclophosphamide (CTX) was administered at doses of 80 and 40 mg/kg weekly in the B16F10 and MC38 models (n = 10), respectively. After the last treatment, on day 19, the mice were sacrificed, and the tumor and spleen were stripped and weighed. The tumor growth inhibition (TGI) was calculated as TGI = (1 − treatment group tumor weight/vehicle group tumor weight) × 100.

[4] = Metabolism in monkey liver S9 fractions; type: in vitro ADME
Procedure: as §1, §2

[5] = Body weight in B16F10 model
Procedure: as §3

[6] = MC38, IMMH-010 maleate 1.25 mg/kg PO once daily 19 days
[7] = MC38, IMMH-010 maleate 2.5 mg/kg PO once daily 19 days
[8] = MC38, IMMH-010 maleate 5 mg/kg PO once daily 19 days
[9] = MC38, IMMH-010 maleate 10 mg/kg PO once daily 19 days

CC(C)OC(=O)[C@H](CO)NCc1cc(Cl)c(OCc2cccc(-c3ccccc3)c2Br)cc1OCc1cccnc1 [IMMH-010]
estimated CLhep ([1]; from human liver S9): 18.2 mL/min/kg | half-life at 10 μM ([1]; pH 7.4, human liver S9 0.5 mg protein/mL, 10 μM, NADPH): 6.66 min | CLhep as share of hepatic blood flow ([1]; range over human, monkey, dog and rat liver S9): 83.4–91.0% | estimated CLhep ([2]; from dog liver S9): 36.4 mL/min/kg | half-life at 10 μM ([2]; pH 7.4, dog liver S9 0.5 mg protein/mL, 10 μM, NADPH): 4.9 min | AUC [3]: 47.9 ng·h/mL | Cmax [3]: 9.46 ng/mL | half-life ([3]; read-out: mean t1/2β in plasma (converted)): 310 min | Tmax ([3]; read-out: observed time to peak concentration): ≤ 90 min | Tumor Weight (g) X ± SD (MC38 colon carcinoma; [6]): 1.03 ± 0.65 g | Tumor Weight TGI (%) (MC38 colon carcinoma; [6]): 40% | Tumor Weight (g) X ± SD (MC38 colon carcinoma; [7]): 1.13 ± 0.78 g | Tumor Weight TGI (%) (MC38 colon carcinoma; [7]): 34% | Tumor Weight (g) X ± SD (MC38 colon carcinoma; [8]): 0.42 ± 0.39 g | Tumor Weight TGI (%) (MC38 colon carcinoma; [8]): 75% | Tumor Weight (g) X ± SD (MC38 colon carcinoma; [9]): 0.73 ± 0.54 g | Tumor Weight TGI (%) (MC38 colon carcinoma; [9]): 57% | estimated CLhep ([4]; from monkey liver S9): 37.2 mL/min/kg | half-life at 10 μM ([4]; pH 7.4, monkey liver S9 0.5 mg protein/mL, 10 μM, NADPH): 8.28 min | Body Weight (g) X ± SD Finish ([5]; B16F10, IMMH-010 maleate 1.25 mg/kg PO once daily 19 days): 20.2 ± 1.4 g | Body Weight (g) X ± SD Start ([5]; B16F10, IMMH-010 maleate 1.25 mg/kg PO once daily): 17.09 ± 0.63 g | Body Weight (g) X ± SD Finish ([5]; B16F10, IMMH-010 maleate 2.5 mg/kg PO once daily 19 days): 20.3 ± 1.2 g | Body Weight (g) X ± SD Start ([5]; B16F10, IMMH-010 maleate 2.5 mg/kg PO once daily): 16.86 ± 0.57 g | Body Weight (g) X ± SD Finish ([5]; B16F10, IMMH-010 maleate 5 mg/kg PO once daily 19 days): 20.0 ± 1.2 g | Body Weight (g) X ± SD Start ([5]; B16F10, IMMH-010 maleate 5 mg/kg PO once daily): 17.09 ± 0.81 g | Body Weight (g) X ± SD Finish ([5]; B16F10, IMMH-010 maleate 10 mg/kg PO once daily 19 days): 20.1 ± 1.0 g | Body Weight (g) X ± SD Start ([5]; B16F10, IMMH-010 maleate 10 mg/kg PO once daily): 17.15 ± 0.50 g | effect on body weight ([5]; B16F10 model, IMMH-010 maleate PO once a day for 19 days): without weight loss
